In ChEMBL document CHEMBL1201862, “PubChem BioAssay data set” (2004):
“And” between values parts separate entries of the source, which are not always exact repeats. Identical values can stand only once.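 Cultured in 96-well plates, cells were exposed to test compound for 48 hours across five concentrations. GI50 = concentration required for 50% inhibition of growth.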 The source made the active and inactive calls. No stated cut-off is given here; in the data, active = GI50 up to about 1.1 µM and inactive = higher.

Experiments:
Experiment in all cases: growth of human tumour cells (NCI), 48 h
COLO 205 = system: COLO 205
NCI/ADR-RES = system: NCI/ADR-RES
SF-295 = system: SF-295
RPMI-8226 = system: RPMI-8226
SK-OV-3 = system: SK-OV-3
SF-539 = system: SF-539
PC-3 = system: PC-3
NCI-H522 = system: NCI-H522
SK-MEL-2 = system: SK-MEL-2
RXF 393 = system: RXF 393
HCT-116 = system: HCT-116
UACC-257 = system: UACC-257
MCF7 = system: MCF7
BT-549 = system: BT-549
MDA-MB-435 = system: MDA-MB-435
786-0 = system: 786-0
TK-10 = system: TK-10
OVCAR-8 = system: OVCAR-8
NCI-H460 = system: NCI-H460
DU-145 = system: DU-145

SMILES | GI50 (COLO 205) | GI50 (NCI/ADR-RES) | GI50 (SF-295) | GI50 (RPMI-8226) | GI50 (SK-OV-3) | GI50 (SF-539) | GI50 (PC-3) | GI50 (NCI-H522) | GI50 (SK-MEL-2) | GI50 (RXF 393) | GI50 (HCT-116) | GI50 (UACC-257) | GI50 (MCF7) | GI50 (BT-549) | GI50 (MDA-MB-435) | GI50 (786-0) | GI50 (TK-10) | GI50 (OVCAR-8) | GI50 (NCI-H460) | GI50 (DU-145)
C=C(C)C12CC3CC/C(=N/O)C(C1)C3(N1CCOCC1)C/C2=N/O (stereo not given) | > 100 µM (inactive) | > 100 µM (inactive) | > 100 µM (inactive) | > 100 µM (inactive) | > 100 µM (inactive) | > 100 µM (inactive) | > 100 µM (inactive) | > 100 µM (inactive) | > 100 µM (inactive) | > 100 µM (inactive) | > 100 µM (inactive) | > 100 µM (inactive) | > 100 µM (inactive) | > 100 µM (inactive) | > 100 µM (inactive) | > 100 µM (inactive) | > 100 µM (inactive) | > 100 µM (inactive) | > 100 µM (inactive) | > 100 µM (inactive)
O=C1C=C(NCCc2ccccc2)c2ccccc2C1=O | 1.83 µM (inactive) | 4.11 µM (inactive) | 1.98 µM (inactive) | 14.8 µM (inactive) | 13.9 µM (inactive) | 2.19 µM (inactive) | 5.25 µM (inactive) | 1.71 µM (inactive) | 1.91 µM (inactive) | 6.65 µM (inactive) | 4.95 µM (inactive) | 1.53 µM (inactive) | 1.67 µM (inactive) | 2.23 µM (inactive) | 0.925 µM (active) | 3.64 µM (inactive) | 14.2 µM (inactive) | 6.38 µM (inactive) | 1.57 µM (inactive) | 1.75 µM (inactive)
O=C(CCC(=O)c1ccsc1)c1ccsc1 | > 100 µM (inactive) | > 100 µM (inactive) | > 100 µM (inactive) | > 100 µM (inactive) | > 100 µM (inactive) | > 100 µM (inactive) | > 100 µM (inactive) | > 100 µM (inactive) | > 100 µM (inactive) | > 100 µM (inactive) | > 100 µM (inactive) | > 100 µM (inactive) | 74.8 µM (inactive) | > 100 µM (inactive) | > 100 µM (inactive) | > 100 µM (inactive) | > 100 µM (inactive) | > 100 µM (inactive) | > 100 µM (inactive) | > 100 µM (inactive)
Cc1ccc2c(c1)OC1Nc3ccccc3C1=C2O (stereo not given) | 14.8 µM (inactive) | 20.9 µM (inactive) | 21.6 µM (inactive) | 28 µM (inactive) | 13.9 µM (inactive) | 20.1 µM (inactive) | 16.3 µM (inactive) | 28.7 µM (inactive) | 16.9 µM (inactive) | 20.5 µM (inactive) | 24.8 µM (inactive) | 22.2 µM (inactive) | 17.2 µM (inactive) | 19.7 µM (inactive) | 26.2 µM (inactive) | 20.1 µM (inactive) | 22.9 µM (inactive) | 35 µM (inactive) | 20.2 µM (inactive) | 25.5 µM (inactive)
COC1C(OC(C)=O)CC(=O)OC(C)C/C=C/C=C\C(O)C(C)CC(CC=O)C1OC1OC(C)C(OC2CC(C)(O)C(OC(=O)CC(C)C)C(C)O2)C(N(C)C)C1O (stereo not given) | > 100 µM (inactive) and 69.7 µM (inactive) | > 100 µM (inactive) | > 100 µM (inactive) | > 100 µM (inactive) and 58.2 µM (inactive) | > 100 µM (inactive) | > 100 µM (inactive) | 79.6 µM (inactive) | > 100 µM (inactive) | > 100 µM (inactive) | 82 µM (inactive) | > 100 µM (inactive) | 66.5 µM (inactive) and 70.1 µM (inactive) | > 100 µM (inactive) and 62.7 µM (inactive) | > 100 µM (inactive) | 51.1 µM (inactive) | > 100 µM (inactive) | > 100 µM (inactive) | > 100 µM (inactive) | > 100 µM (inactive) | 97.9 µM (inactive)
CN1CCCCC1CCN1c2ccccc2Sc2ccc([S+](C)[O-])cc21 (stereo not given) [MESORIDAZINE] | > 100 µM (inactive) | > 100 µM (inactive) | > 100 µM (inactive) | > 100 µM (inactive) | > 100 µM (inactive) | > 100 µM (inactive) | > 100 µM (inactive) | > 100 µM (inactive) | > 100 µM (inactive) | > 100 µM (inactive) | > 100 µM (inactive) | > 100 µM (inactive) | > 100 µM (inactive) | > 100 µM (inactive) | > 100 µM (inactive) | > 100 µM (inactive) | > 100 µM (inactive) | > 100 µM (inactive) | > 100 µM (inactive) | > 100 µM (inactive)
